# Counter-ions that a name gives are not always drawn. Like-named read-outs stand apart in the source and are kept apart here.
# How the values were obtained:
# [1] = tested on: CRMM1; assay: cells; design: CCK-8 anti-proliferation assay in conjunctival melanoma cell lines
# Experimental: (§1) The anti-proliferative activity of our in-house drugs against CM-AS16 cells was assessed using the Cell Counting Kit-8 (CCK-8) assay at a final concentration of 10 μM (Fig. 1A). […] These analogues were Chinese herbal monomers harbouring the same bisbenzylisoquinoline core. […] Fangchinoline harbours an exposed hydroxy group, which is suitable for synthesizing functionalized probes and subsequent target identification. […] Next, we assessed the anti-proliferative activity of fangchinoline against three other CM cell lines obtained from patients with a typical NRAS (CRMM2) or BRAF mutation (CRMM1 and CM2005.1)[26],[27]. […] To determine whether fangchinoline could suppress CM properties in vivo, an immunodeficient NCG mice xenograft model was created by subcutaneous inoculation of CM-AS16 cells. NCG mice comes from knocking out the Prkdc and IL2rg genes in NOD/ShiltJ mice through Crispr Cas9 technology. […] The average tumour volume of the control group was 204 mm^3, which was higher than that of the treated groups (50 mg/kg/day fangchinoline, tumour volume: […] CRMM1, CRMM2 and CM2005.1 were generously provided by Professor Martine J. Jager (Leiden University Medical Center, Leiden, The Netherlands)[47] and CM-AS16 was provided by Professor Renbin Jia (Shanghai Ninth People’s Hospital, Shanghai, China). A375 and HEK293T were obtained from American Type Culture Collection. CM-AS16 and CM2005.1 were maintained in 1640H medium, CRMM1 and CRMM2 were maintained in F12K medium, A375 and HEK293T were maintained in DMEM medium, and MRC5 was maintained in MEM medium. All mediums were supplemented with 10% FBS. Cells were cultured at 37 °C in an incubator, in a humidified atmosphere with 5% CO2, periodically checked for mycoplasma-free and validated by short tandem repeats (STR) DNA analysis at BGI Tech Solutions (Beijing Liuhe) Co., Limited.
# [2] = tested on: CM2005.1; assay: cells; design: CCK-8 anti-proliferation assay in conjunctival melanoma cell lines
# Experimental: as §1
# [3] = tested on: CM-AS16; assay: cells; design: CCK-8 anti-proliferation assay in conjunctival melanoma cell lines
# Experimental: as §1
# [4] = tested on: CRMM2; assay: cells; design: CCK-8 anti-proliferation assay in conjunctival melanoma cell lines
# Experimental: as §1
# [5] = in vitro; design: CCK-8 growth inhibition of MRC5 normal fibroblasts (counter-screen); details: human, mrc5 cells
# Experimental: as §1
# [6] = biological target: T1, far upstream element binding protein 2 (FUBP2) (Homo sapiens, UniProt Q92945); assay: microscale thermophoresis (MST, Monolith NT.[…]) with EGFP-labelled FUBP2 from transfected HEK293T cells
# T1 construct: gene KHSRP; FUBP2 labelled with enhanced green fluorescent protein, obtained from HEK293T cells transfected with plasmids
# T1 sequence (Q92945 2-711): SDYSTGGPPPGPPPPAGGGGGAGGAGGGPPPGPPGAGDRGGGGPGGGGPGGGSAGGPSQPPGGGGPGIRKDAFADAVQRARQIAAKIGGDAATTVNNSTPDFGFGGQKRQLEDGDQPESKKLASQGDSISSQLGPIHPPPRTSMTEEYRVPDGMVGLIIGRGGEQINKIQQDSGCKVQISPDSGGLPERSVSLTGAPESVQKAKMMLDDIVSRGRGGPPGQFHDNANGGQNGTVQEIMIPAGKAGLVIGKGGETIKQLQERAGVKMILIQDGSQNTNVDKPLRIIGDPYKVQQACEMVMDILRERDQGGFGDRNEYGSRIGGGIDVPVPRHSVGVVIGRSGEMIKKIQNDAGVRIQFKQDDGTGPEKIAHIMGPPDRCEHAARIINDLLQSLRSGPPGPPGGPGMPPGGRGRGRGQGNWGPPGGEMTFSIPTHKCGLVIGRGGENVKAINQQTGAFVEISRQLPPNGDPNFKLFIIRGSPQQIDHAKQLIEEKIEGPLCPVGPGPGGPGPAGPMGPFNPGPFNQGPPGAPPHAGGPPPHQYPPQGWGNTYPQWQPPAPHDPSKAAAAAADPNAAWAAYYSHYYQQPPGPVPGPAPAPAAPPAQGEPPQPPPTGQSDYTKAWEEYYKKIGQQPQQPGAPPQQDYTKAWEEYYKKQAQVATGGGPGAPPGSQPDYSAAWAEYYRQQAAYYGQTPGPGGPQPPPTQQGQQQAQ
# [7] = Homo sapiens, CRMM-1; read-out: IC50 (μM) CRMM1
# [8] = CM2005.1; read-out: IC50 (μM) CM2005.1
# [9] = CM-AS16; read-out: IC50 (μM) CM-AS16
# [10] = Homo sapiens, CRMM-2; read-out: IC50 (μM) CRMM2
compound,measurement,setting,value
COc1cc2c3cc1Oc1c(OC)c(OC)cc4c1[C@@H](Cc1cccc(c1)Oc1ccc(c(O)c1)C[C@@H]3N(C)CC2)N(C)CC4 [Berbamine Hydrochloride],IC50,"[1]; Homo sapiens, CRMM-1, read-out: IC50 (μM) CRMM1",8.16 ± 0.13 µM
same,IC50,"[2]; CM2005.1, read-out: IC50 (μM) CM2005.1",20.2 ± 0.49 µM
same,IC50,"[3]; CM-AS16, read-out: IC50 (μM) CM-AS16",8.46 ± 0.22 µM
same,IC50,"[4]; Homo sapiens, CRMM-2, read-out: IC50 (μM) CRMM2",4.14 ± 0.5 µM
same,CC50,[5],9.03 ± 0.22 µM
COc1ccc2cc1Oc1ccc(cc1)C[C@H]1c3c(cc4c(c3Oc3cc5c(cc3OC)CCN(C)[C@@H]5C2)OCO4)CCN1C [Cepharanthine],IC50,[1]; [7],4.69 ± 0.17 µM
same,IC50,[2]; [8],7.44 ± 0.08 µM
same,IC50,[3]; [9],1.63 ± 0.24 µM
same,IC50,[4]; [10],0.792 ± 0.013 µM
same,CC50,[5]; read-out: IC50 (μM) MRC5,8.44 ± 0.54 µM
Cn1cnc2c(F)c(Nc3ccc(Br)cc3F)c(C(=O)NOCCO)cc21 [MEK162],IC50,[1]; [7],> 50 µM
same,IC50,[2]; [8],0.068 ± 0.008 µM
same,IC50,[3]; [9],0.0077 ± 0.0016 µM
same,IC50,[4]; [10],0.0136 ± 0.0006 µM
same,CC50,[5]; read-out: IC50 (μM) MRC5,6.32 ± 0.16 µM
COc1ccc2cc1Oc1ccc(cc1)C[C@H]1c3cc(c(OC)cc3CCN1C)Oc1c(OC)c(OC)cc3c1[C@H](C2)N(C)CC3 [Tetrandrine],IC50,[1]; [7],4.77 ± 0.24 µM
same,IC50,[2]; [8],9.7 ± 0.07 µM
same,IC50,[3]; [9],3.2 ± 0.06 µM
same,IC50,[4]; [10],2.16 ± 0.02 µM
same,CC50,[5]; read-out: IC50 (μM) MRC5,5.75 ± 0.11 µM
COc1ccc2cc1Oc1ccc(cc1)C[C@H]1c3cc(c(OC)cc3CCN1C)Oc1c(O)c(OC)cc3c1[C@H](C2)N(C)CC3 [fangchinoline],IC50,[1]; [7],2.68 ± 0.07 µM
same,IC50,[2]; [8],7.4 ± 0.45 µM
same,IC50,[3]; [9],5.67 ± 0.17 µM
same,IC50,[4]; [10],3.6 ± 0.05 µM
same,CC50,[5]; read-out: IC50 (μM) MRC5,4.35 ± 0.11 µM
same,Kd,[6],246 µM
